# US9856274B2, “Substituted pyrazolo[1,5-a]pyridines as PDE-10 inhibitors” (Sunovion Pharmaceuticals Inc., priority 2011, dated 2018)
# Target: recombinant human PDE-10 enzyme (Homo sapiens (Human), UniProt Q9Y233)
# Experiment: Human PDE-10 inhibition enzyme assay (IMAP PDE Fluorescence Polarization)
# Assay type: biochemical
# Details: recombinant human PDE-10 expressed in baculoviral system; Fluorescein-labeled cAMP/cGMP substrate; 40-minute incubation at 37° C.
# Description: In one embodiment, the compounds provided herein were assayed for their ability to inhibit human PDE-10A. In one embodiment, the activities of the compounds were determined using the Molecular Devices IMAP PDE Fluorescence Polarization assay using recombinant human PDE-10 enzyme expressed in a baculoviral system. Briefly, 10 μL of a compound (0.2 nM-20 μM) was added to either a 96-well half area black plate or a 384-well black plate along with 10 μL of Fluorescein-labeled cAMP/cGMP substrate as per manufacturer's instructions and 10 μL of PDE enzyme (activity 0.1 U). Following a 40-minute incubation at 37° C., 60 μL of IMAP binding reagent was added. The plate was then read on a Perkin Elmer Victor (480-535 nm). The data was analyzed using Prism Software (GraphPad Inc, San Diego, Calif.).
# recombinant human PDE-10 enzyme, sequence (Q9Y233 whole entry): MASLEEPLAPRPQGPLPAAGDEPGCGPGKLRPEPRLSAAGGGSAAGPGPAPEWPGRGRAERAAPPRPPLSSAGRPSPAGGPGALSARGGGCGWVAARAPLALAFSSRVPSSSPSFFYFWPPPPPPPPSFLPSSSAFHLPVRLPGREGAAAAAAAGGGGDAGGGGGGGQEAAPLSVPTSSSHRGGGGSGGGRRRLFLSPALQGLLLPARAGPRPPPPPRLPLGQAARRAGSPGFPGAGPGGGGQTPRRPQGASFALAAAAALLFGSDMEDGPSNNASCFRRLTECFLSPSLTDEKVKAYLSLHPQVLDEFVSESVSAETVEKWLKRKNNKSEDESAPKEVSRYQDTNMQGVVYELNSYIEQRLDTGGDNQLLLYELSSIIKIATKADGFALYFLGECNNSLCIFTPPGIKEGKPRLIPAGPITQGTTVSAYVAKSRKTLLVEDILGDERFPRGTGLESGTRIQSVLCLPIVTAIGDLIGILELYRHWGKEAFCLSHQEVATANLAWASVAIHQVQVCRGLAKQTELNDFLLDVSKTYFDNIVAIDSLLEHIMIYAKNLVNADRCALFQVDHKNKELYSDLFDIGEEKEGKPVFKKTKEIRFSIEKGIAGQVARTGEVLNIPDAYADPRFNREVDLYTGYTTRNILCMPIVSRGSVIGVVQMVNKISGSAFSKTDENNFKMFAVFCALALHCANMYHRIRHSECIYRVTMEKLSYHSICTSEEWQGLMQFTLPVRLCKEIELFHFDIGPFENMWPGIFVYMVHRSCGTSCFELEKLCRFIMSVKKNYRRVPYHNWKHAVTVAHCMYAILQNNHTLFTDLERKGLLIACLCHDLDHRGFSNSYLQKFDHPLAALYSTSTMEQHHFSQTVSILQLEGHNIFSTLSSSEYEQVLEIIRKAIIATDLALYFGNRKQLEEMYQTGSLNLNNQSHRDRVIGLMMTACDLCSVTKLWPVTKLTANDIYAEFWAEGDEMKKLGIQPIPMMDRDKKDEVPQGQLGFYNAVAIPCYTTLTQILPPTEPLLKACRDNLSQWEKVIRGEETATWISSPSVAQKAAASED
row,IC50 [µM],SMILES
1,0.01 to 0.1,Cc1ncc(C)n2nc(CCc3cn4ccccc4n3)nc12 [Compound 1]
2,> 0.5,Cc1ncc(C)n2nc(CCc3nc4ccccn4n3)nc12 [Compound 3]
3,0.1 to 0.5,Cn1c(CCc2nc3ccccc3o2)nc2c3cccnc3ccc21 [Compound 4]
4,0.01 to 0.1,Cn1c(CCc2nc3ccccn3n2)nc2c3cccnc3ccc21 [Compound 5]
5,≤ 0.01,Cc1ncc(C)n2nc(CCc3nc4c5cccnc5ccc4n3C)nc12 [Compound 6]
6,≤ 0.01,Cc1ncc(C)n2nc(CCc3nc4c5cccnc5sc4n3C)nc12 [Compound 7]
7,≤ 0.01,Cc1cccc2nc(CCc3nc4c5cccnc5ccc4n3C)nn12 [Compound 8]
8,≤ 0.01,Cc1cccn2nc(CCc3nc4c5cccnc5ccc4n3C)nc12 [Compound 9]
9,0.01 to 0.1,Cc1cnc(C)n2nc(CCc3nc4c5cccnc5ccc4n3C)nc12 [Compound 10]
10,≤ 0.01,Cc1ccc(C)n2nc(CCc3nc4c5cccnc5ccc4n3C)nc12 [Compound 11]
11,0.1 to 0.5,Cc1ncc(C)n2nc(CCc3nc4ccc5ncccc5n4n3)nc12 [Compound 12]
12,0.01 to 0.1,Cc1ncc(C)n2nc(CCc3nc4c5cccnc5ccn4n3)nc12 [Compound 13]
13,0.01 to 0.1,Cc1cccc2nc(CCc3nc4c5cccnc5ccn4n3)nn12 [Compound 14]
14,> 0.5,c1cnc2ccn3nc(CCc4nc5ccccn5n4)nc3c2c1 [Compound 15]
15,≤ 0.01,Cc1ccc(C)n2nc(CCc3nc4c5cccnc5ccn4n3)nc12 [Compound 16]
16,0.01 to 0.1,Cc1cc(C)n2nc(CCc3nc4c5cccnc5ccn4n3)nc2n1 [Compound 17]
17,≤ 0.01,Cc1ncc(C)n2nc(CCc3nc4c5ncccc5ccc4n3C)nc12 [Compound 18]
18,≤ 0.01,Cc1ncc(C)n2nc(CCc3nc4c5nccnc5ccc4n3C)nc12 [Compound 19]
19,0.1 to 0.5,Cn1c(CCc2nc3ccccn3n2)nc2c3ncccc3ccc21 [Compound 20]
20,0.1 to 0.5,Cn1c(CCc2nc3ccccn3n2)nc2c3nccnc3ccc21 [Compound 21]
21,> 0.5,c1cnc2c(c1)ccn1nc(CCc3nc4ccccn4n3)nc21 [Compound 22]

row,IC50 [µM],SMILES
1,> 0.5,"Cc1cccc2nc(CCc3nc4n(n3)CCc3ncccc3-4)nn12 [Compound 23, 2-(2-(5-Methyl-[1,2,4]triazolo[1,5-a]pyridin-2-yl)ethyl)-5,6-dihydro-[1,2,4]triazolo[5,1-f][1,6]naphthyridine]"
2,≤ 0.01,Cc1ncc(C)n2nc(CCc3nc4c5cccnc5ccc4n3C)cc12 [Compound 24]
3,0.01 to 0.1,Cc1ncc(C)n2cc(CCc3nc4c5cccnc5ccc4n3C)nc12 [Compound 25]
4,> 0.5,Cn1c(CCc2cn3ccccc3n2)nc2c3cccnc3ccc21 [Compound 26]
5,0.01 to 0.1,Cc1ncc(C)n2cc(CCc3nc4c5cccnc5ccn4n3)nc12 [Compound 27]
6,0.01 to 0.1,Cc1ncc(C)n2nc(CCc3nc4c(ccc5ncccc54)[nH]3)cc12 [Compound 28]
7,≤ 0.01,Cc1ncc(C)n2nc(C(C)Cc3nc4c5cccnc5ccc4n3C)nc12 (centres unmarked) [Compound 29]
8,0.01 to 0.1,Cc1ncc(C)n2nc(CC(C)c3nc4c5cccnc5ccc4n3C)nc12 (centres unmarked) [Compound 30]
9,> 0.5,Cn1c(CCc2cn3ccncc3n2)nc2c3cccnc3ccc21 [Compound 31]
10,0.01 to 0.1,Cc1ccc(C)n2cc(CCc3nc4c5cccnc5ccc4n3C)nc12 [Compound 32]
11,≤ 0.01,Cc1ccc(Cl)c2cc(CCc3nc4c5cccnc5ccc4n3C)nn12 [Compound 33]
12,0.1 to 0.5,Cc1ccc(C)n2cc(CCc3nc4c5cccnc5ccn4n3)nc12 [Compound 34]
13,0.01 to 0.1,Cc1ncc(C)n2nc(CCc3nc4c5cccnc5ccn4n3)cc12 [Compound 35]
14,≤ 0.01,Cc1ncc(C)n2nc(CCc3nc4c(ccc5ncccc54)[nH]3)nc12 [Compound 36]
15,≤ 0.01,Cc1ncc(C)n2nc(CCc3nc4c5c(ccc4n3C)CCCC5)nc12 [Compound 37]
16,≤ 0.01,Cc1ncc(C)n2nc(CCc3nc4c5c(ccn4c3C)CCCC5)nc12 [Compound 38]
17,≤ 0.01,Cc1ncc(C)n2nc(CCc3nc4c5cccnc5ccn4c3C)nc12 [Compound 39]
18,≤ 0.01,Cc1c(CCc2nc3c(F)ccc(C)n3n2)nc2c3cccnc3ccn12 [Compound 40]
19,0.01 to 0.1,Cc1ncc(C)n2nc(CCc3nc4c5c(ccn4c3C)NCCO5)nc12 [Compound 41]
20,≤ 0.01,Cc1ncc(C)n2nc(CCc3nc4c5c(ccc4n3C)OCCO5)nc12 [Compound 42]
